Data on six molecules can be found in PubChem BioAssay AID1259407 (Chemical Carcinogenesis Research Information System (CCRIS), 2018).

Structures are written as SMILES. Calls of active or inactive are those of the source. No rule for the calls is given here.

This data set deals with CCRIS mutagenicity, Ames/micronucleus/aberration tests. Put plainly: CCRIS mutagenicity studies.
The mark [1] stands for this setting: Test System: AMES SALMONELLA TYPHIMURIUM, Strain/Indicator: TA98, Metabolic Activation: NONE, Method: STANDARD PLATE.
[2] abbreviates: Test System: AMES SALMONELLA TYPHIMURIUM, Strain/Indicator: TA100, Metabolic Activation: NONE, Method: STANDARD PLATE.
[3] abbreviates: Test System: AMES SALMONELLA TYPHIMURIUM, Strain/Indicator: TA100, Metabolic Activation: RAT, LIVER, S-9, AROCLOR 1254, Method: STANDARD PLATE.
Setting [4] is: Test System: AMES SALMONELLA TYPHIMURIUM, Strain/Indicator: TA1535, Metabolic Activation: NONE, Method: STANDARD PLATE.

As for `CN(CCCC(=O)O)N=O`, the mutagenic call (Test System: AMES SALMONELLA TYPHIMURIUM, Strain/Indicator: TA1535, Metabolic Activation: RAT, LIVER, S-9, KC500 OR PHENOBARBITAL, Method: LIQUID SUSPENSION) is “active; positive”.

In the case of `O[C@@H]1c2ccc3cc4ccccc4cc3c2[C@@H]2OC2[C@@H]1O` (some centres undefined), the mutagenic call (Test System: CHINESE HAMSTER V-79, Strain/Indicator: V-79/8-AZAGUANINE, Metabolic Activation: NONE, Method: STANDARD PLATE) was “active; positive”.

On to `[Cl][Cd][Cl]`, for which the mutagenic call (End Point: IN VITRO MICRONUCLEUS, Test System: CHL/IU CELLS, Metabolic Activation: NONE) was “active; positive”; the mutagenic call (End Point: IN VITRO MICRONUCLEUS, Test System: HAMSTER V79 CELLS, Metabolic Activation: NONE) was “active; positive”; the mutagenic call (End Point: IN VITRO MICRONUCLEUS, Test System: HUMAN PERIPHERAL LYMPHOCYTES, Metabolic Activation: NONE, Method: FISH (CENTROMERIC SIGNAL CONTENT)) is “active; positive”; the mutagenic call (Test System: AMES SALMONELLA TYPHIMURIUM, Strain/Indicator: TA97, Metabolic Activation: NONE, Method: STANDARD PLATE) is “inactive; negative”; the mutagenic call (Test System: AMES SALMONELLA TYPHIMURIUM, Strain/Indicator: TA97, Metabolic Activation: RAT, LIVER, S-9, AROCLOR 1254, Method: STANDARD PLATE) is “inactive; negative”; the mutagenic call under setting [1] was “inactive; negative”. In addition, the mutagenic call is “inactive; negative” (Test System: AMES SALMONELLA TYPHIMURIUM, Strain/Indicator: TA98, Metabolic Activation: RAT, LIVER, S-9, AROCLOR 1254, Method: STANDARD PLATE); “inactive; negative” (Test System: AMES SALMONELLA TYPHIMURIUM, Strain/Indicator: TA98, Metabolic Activation: S-9, Method: STANDARD PLATE); “inactive; negative” under setting [2]; “inactive; negative” under setting [3]; “inactive; negative” under setting [4]; “inactive; negative” (Test System: AMES SALMONELLA TYPHIMURIUM, Strain/Indicator: TA1535, Metabolic Activation: S-9, Method: STANDARD PLATE). Besides, the mutagenic call is, setting by setting: (Test System: CHINESE HAMSTER V-79, Strain/Indicator: SP5 V-79 (HPRT)/6-THIOGUANINE, Metabolic Activation: NONE, Method: STANDARD PLATE) “inactive; negative”; (Test System: CHINESE HAMSTER V-79, Strain/Indicator: SPD8 V-79 (HPRT)/6-THIOGUANINE, Metabolic Activation: NONE, Method: STANDARD PLATE) “active; positive”; (Test System: CHINESE HAMSTER V-79 CELLS, Strain/Indicator: V-79 CELLS (HPRT)/6-THIOGUANINE, Metabolic Activation: NONE, Method: PREINCUBATION) “inactive; negative”; (Test System: Chinese hamster lung cells, Strain/Indicator: V-79/HPRT/6-Thioguanidine, Metabolic Activation: None, Method: Standard Plate) “active; positive”; (Test System: E. COLI, Strain/Indicator: WP2 UVRA, Metabolic Activation: NONE, Method: SPOT TEST) “active; positive”; (Test System: E. COLI, Strain/Indicator: WP2 UVRA, Metabolic Activation: NONE, Method: STANDARD PLATE) “active; positive”. Besides, the mutagenic call reads like this: (Test System: Rat lymphocytes, Strain/Indicator: Kumin/Male/HPRT/6-Thioguanidine, Metabolic Activation: None, Method: Intraperitoneal injection, blood collection 1, 6, and 12 d later) “active; positive”; (Test System: UDS HAMSTER TRACHEAL EPITHELIAL CELLS, Strain/Indicator: THY INCORP (NON-S-PHASE), Metabolic Activation: NONE, Method: AUTORADIOGRAPHY) “inactive; negative”; (Test System: UDS RAT TRACHEAL EPITHELIAL CELLS, Strain/Indicator: THY INCORP (NON-S-PHASE), Metabolic Activation: NONE, Method: AUTORADIOGRAPHY) “active; positive”.

In the case of `O=c1[nH]c(=O)n([C@@H]2O[C@H](CO)[C@@H](O)[C@@H]2O)cc1/C=C/Br`, the mutagenic call is “inactive; negative” (Test System: CHINESE HAMSTER V-79, Strain/Indicator: V-79/8-AZAGUANINE, Metabolic Activation: NONE) and “inactive; negative” (Test System: UDS RODENT HEPATOCYTES, Strain/Indicator: THY INCORP, Metabolic Activation: NONE).

Consider `CCOC(=O)CC(SP(=O)(OC)OC)C(=O)OCC` (centres undefined), for which the mutagenic call is “inactive; negative” (End Point: IN VITRO CHROMOSOMAL ABERRATIONS, Test System: CHO CELLS, Metabolic Activation: NONE); “inactive; negative” (Test System: AMES SALMONELLA TYPHIMURIUM, Strain/Indicator: TA97, Metabolic Activation: HAMSTER, LIVER, S-9, AROCLOR 1254 (10 OR 30%), Method: PREINCUBATION); “inactive; negative” (Test System: AMES SALMONELLA TYPHIMURIUM, Strain/Indicator: TA97, Metabolic Activation: NONE, Method: PREINCUBATION); “inactive; negative” (Test System: AMES SALMONELLA TYPHIMURIUM, Strain/Indicator: TA97, Metabolic Activation: RAT, LIVER, S-9, AROCLOR 1254 (10 OR 30%), Method: PREINCUBATION); “inactive; negative” (Test System: AMES SALMONELLA TYPHIMURIUM, Strain/Indicator: TA98, Metabolic Activation: HAMSTER, LIVER, S-9, AROCLOR 1254 (10 OR 30%), Method: PREINCUBATION); “inactive; negative” (Test System: AMES SALMONELLA TYPHIMURIUM, Strain/Indicator: TA98, Metabolic Activation: NONE, Method: PREINCUBATION). The mutagenic call is “inactive; negative” under setting [1]; “inactive; negative” (Test System: AMES SALMONELLA TYPHIMURIUM, Strain/Indicator: TA98, Metabolic Activation: RAT, LIVER, S-9, AROCLOR 1254 (10 OR 30%), Method: PREINCUBATION); “active; positive” (Test System: AMES SALMONELLA TYPHIMURIUM, Strain/Indicator: TA98, Metabolic Activation: RAT, LIVER, S-9, Method: STANDARD PLATE); “inactive; negative” (Test System: AMES SALMONELLA TYPHIMURIUM, Strain/Indicator: TA100, Metabolic Activation: HAMSTER, LIVER, S-9, AROCLOR 1254 (10 OR 30%), Method: PREINCUBATION); “inactive; negative” (Test System: AMES SALMONELLA TYPHIMURIUM, Strain/Indicator: TA100, Metabolic Activation: NONE, Method: PREINCUBATION); “active; positive” under setting [2]. The mutagenic call is, setting by setting: (Test System: AMES SALMONELLA TYPHIMURIUM, Strain/Indicator: TA100, Metabolic Activation: RAT, LIVER, S-9, AROCLOR 1254 (10 OR 30%), Method: PREINCUBATION) “inactive; negative”; (Test System: AMES SALMONELLA TYPHIMURIUM, Strain/Indicator: TA100, Metabolic Activation: RAT, LIVER, S-9, Method: STANDARD PLATE) “inactive; negative”; (Test System: AMES SALMONELLA TYPHIMURIUM, Strain/Indicator: TA1535, Metabolic Activation: HAMSTER, LIVER, S-9, AROCLOR 1254 (10 OR 30%), Method: PREINCUBATION) “inactive; negative”; (Test System: AMES SALMONELLA TYPHIMURIUM, Strain/Indicator: TA1535, Metabolic Activation: NONE, Method: PREINCUBATION) “inactive; negative”; (Test System: AMES SALMONELLA TYPHIMURIUM, Strain/Indicator: TA1535, Metabolic Activation: RAT, LIVER, S-9, AROCLOR 1254 (10 OR 30%), Method: PREINCUBATION) “inactive; negative”.

For the molecule `CCc1ccc2c(c1[N+](=O)[O-])C(=O)c1ccccc1C2=O`, the mutagenic call is “inactive; negative” under setting [1]; “inactive; negative” under setting [2]; “active; positive” under setting [3]; “inactive; negative” under setting [4]; “inactive; negative” (Test System: AMES SALMONELLA TYPHIMURIUM, Strain/Indicator: TA1535, Metabolic Activation: RAT, LIVER, S-9, AROCLOR 1254, Method: STANDARD PLATE); “inactive; negative” (Test System: AMES SALMONELLA TYPHIMURIUM, Strain/Indicator: TA1537, Metabolic Activation: NONE, Method: STANDARD PLATE). Further, under “Test System: AMES SALMONELLA TYPHIMURIUM, Strain/Indicator: TA1538, Metabolic Activation: NONE, Method: STANDARD PLATE”, the mutagenic call was “inactive; negative”.
